{"source": "patent US9696323B2", "about": "“Biomarkers for chagas disease related cardiomyopathy” (THE BOARD OF REGENTS OF THE UNIVERSITY OF TEXAS SYSTEM, priority 2013, dated 2017)", "experiment": "2D-GE plasma proteome profile (differential protein expression) of T. cruzi-infected rats treated with PBN and/or BZ", "assay_type": "in vivo, rat", "details": "plasma", "text": "Certain embodiments include biomarkers identified in a previous study. Parasite persistence and oxidative damage in the heart are known to be of pathological significance during Chagas disease (Zacks et al., (2005) An Acad Bras Cienc, 77, 695-715; Gupta et al., (2009) Interdiscip Perspect Infect Dis, 2009, 190354). […] In the previous study the inventors identified 92 proteins that were differentially expressed or oxidized in chagasic plasma. Functional analysis allocated a majority of these proteins to inflammation/immunity and lipid metabolism categories, and to molecular pathways associated with cardiovascular dysfunction, e.g., myocardial infarction, hypertrophy, and fibrosis, and pulmonary embolism and hypertension. Some proteins in chagasic rats treated with PBN and/or BZ were allocated to curative pathways (immune regulation and cardiac remodeling). The 2D-GE results were validated by Western blotting. […] Increased plasma levels of GSN, MYL2, and VIM were directly correlated with the severity of cardiac disease in human chagasic patients. […] These findings have utility in diagnosing disease severity and designing suitable therapy for management of human chagasic patients.\nIngenuity Pathway Analysis (IPA) is a highly curated and comprehensive software used for the integration of proteins into networks and pathways with biological meaning (Thomas and Bonchev, (2010). Hum Genomics, 4, 353-360). Network analysis of the plasma proteome profile of chagasic rats identified four major sub-networks linked to host response to T. cruzi infection and disease development (Table V). The maximal numbers of the differentially expressed plasma proteins (19 proteins) in chagasic rats were associated with antigen presentation and inflammatory response category (Table V) and indicators of persistent inflammation, known to be of pathological significance in Chagas disease (Dhiman et al., (2009) Clinical and Vaccine Immunology, 16, 660-666; Tanowitz et al., (2009) Prog Cardiovasc Dis, 51, 524-539; Junqueira et al., (2010) Expert Rev Mol Med, 12, e29). Following functional analysis of the inflammation-associated proteins, 12 proteins (APOA1, APOE, C3, CFB, CFH, FGB, GSN, KRT10, PLG, SCG2, SERPINA1, and SERPINC1) were identified as being involved in immune cell trafficking and cell movement of leukocytes, granulocytes, phagocytes, neutrophils, and dendritic and antigen presenting cells. Some of the differentially expressed proteins in inflammation category were associated with activation (APOE, C3, CFH, GC and PLG), chemotaxis (C3, SCG2, SERPINA1, SERPINC1), and infiltration of leukocytes (APOA1, APOE, C3, PLG, KRT10) and neutrophils (C3, CFB, CFH, PLG). Up regulation of APOE, APOA1, APOH, GC and PLG in chagasic plasma was indicative of activation, binding and accumulation of macrophages in the disease state. Of the 19 differentially expressed inflammation-associated proteins, 11 proteins (APOE, C3, CFB, CFH, GSN, KRT10, SCG2, SERPINA1, SERPINC1, GC, and PLG) were carbonylated in chagasic plasma. […] Other proteins (APOE, C3, KRT3, and SCG2) were exposed to oxidation due to T. cruzi-induced, acute oxidative stress, but were normalized in expression and oxidation during the chronic phase.\nSeventeen of the differentially expressed proteins in chagasic plasma, i.e., AFM, C4BPA, CACNA1D, DLGAP2, GC, KNG1, MUG1, MYLPF, MY05A, MY05B, PRPH, PZP, RAI14, and SCG2, were allotted to the lipid metabolism/molecular transport/small molecule biochemistry category (Table V) and functionally linked by IPA network analysis to lipid, fatty acid, and carbohydrate metabolism. A majority of the proteins in this category, i.e., ALB, APOA1, APOA4, APOE, APOH, C3, GC, GNAQ, MY05A, PLG, SCD2, SERPINA1, SERPINC1 and VIM, were linked to the synthesis, metabolism, transport, and modification of lipids and fatty acids, and to uptake and release or efflux of lipids, eicosanoids, and cholesterol. […]", "data": [{"smiles": "CC(C)(C)/[N+]([O-])=C/c1ccccc1", "note": "[PBN]", "values": [{"measurement": "Spot# 106 Average Normalized Density × 100,000", "setting": "RAP group (acute infection)", "result": 1.70}, {"measurement": "Spot# 106 Average Normalized Density × 100,000", "setting": "RCP/RCB/RCPB groups (chronic infection)", "result": 6.94}]}]}
